Assay results from ChEMBL document CHEMBL1201862, “PubChem BioAssay data set” (2004).
The source made the active and inactive calls.

Experiments:
[1] = inhibitors of HIV Env-driven cell fusion, dose response, cherry-pick (AID 652057); format: functional, cell-based
[2] = off-target signal loss in HeLa-CEM21 co-culture – HeLa F-luc CTL cells, cherry-picked, counter-screen for HIV-1 Env fusion inhibitor project, dose response (AID 652040); format: functional, cell-based;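 note: potency for signal decrease marking cytotoxic or nonspecific inhibition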
[3] = inhibitors of clade B AD8 Env fusion, dose response, cell-based, cherry-pick (AID 652062); format: functional;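 note: luciferase signal from cell-cell fusion driven by HIV-1 clade B AD8 Env; potency is for inhibitors of fusion seen as a drop in luminescence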
cells [4] = format: functional, cell-based
cells [5] = format: functional, cell-based; remark: listed apart in the source
Large T antigen = Large T antigen (Simian virus 40, UniProt P03070); format: functional, Betapolyomavirus macacae;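 note: Confirmatory-stage PubChem screen for compounds that inhibit SV40 T antigen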
Sequence of Large T antigen (P03070 whole entry): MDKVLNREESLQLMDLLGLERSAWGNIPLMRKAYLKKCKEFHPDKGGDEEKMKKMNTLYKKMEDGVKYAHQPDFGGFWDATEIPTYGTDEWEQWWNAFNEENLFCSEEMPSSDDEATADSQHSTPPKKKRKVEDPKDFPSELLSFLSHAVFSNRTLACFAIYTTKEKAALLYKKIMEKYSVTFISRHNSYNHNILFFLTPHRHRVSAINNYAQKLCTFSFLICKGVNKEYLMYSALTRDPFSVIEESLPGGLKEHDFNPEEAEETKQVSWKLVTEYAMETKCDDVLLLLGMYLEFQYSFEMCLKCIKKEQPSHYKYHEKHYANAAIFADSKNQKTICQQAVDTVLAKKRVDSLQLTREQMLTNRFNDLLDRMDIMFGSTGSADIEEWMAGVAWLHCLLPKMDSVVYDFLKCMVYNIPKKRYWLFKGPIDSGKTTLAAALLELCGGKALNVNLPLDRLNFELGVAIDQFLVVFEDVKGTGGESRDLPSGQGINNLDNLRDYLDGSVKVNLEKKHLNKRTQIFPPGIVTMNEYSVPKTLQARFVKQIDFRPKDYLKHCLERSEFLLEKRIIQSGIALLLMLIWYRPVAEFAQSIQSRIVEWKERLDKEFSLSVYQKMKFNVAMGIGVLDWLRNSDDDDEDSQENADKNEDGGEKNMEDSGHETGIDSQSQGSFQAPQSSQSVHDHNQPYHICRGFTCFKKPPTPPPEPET

[6] = biological target: T1, Short transient receptor potential channel 4 (Mus musculus, UniProt Q9QUQ5); experiment: mouse TRPC4 channel inhibitors, dose response, cell-based, HEK293 TRPC4/mu-opioid, Fluo-4 calcium (AID 434942); format: functional;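 note: potency of inhibitors blocking the TRPC4 calcium response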
T1 sequence (Q9QUQ5 whole entry): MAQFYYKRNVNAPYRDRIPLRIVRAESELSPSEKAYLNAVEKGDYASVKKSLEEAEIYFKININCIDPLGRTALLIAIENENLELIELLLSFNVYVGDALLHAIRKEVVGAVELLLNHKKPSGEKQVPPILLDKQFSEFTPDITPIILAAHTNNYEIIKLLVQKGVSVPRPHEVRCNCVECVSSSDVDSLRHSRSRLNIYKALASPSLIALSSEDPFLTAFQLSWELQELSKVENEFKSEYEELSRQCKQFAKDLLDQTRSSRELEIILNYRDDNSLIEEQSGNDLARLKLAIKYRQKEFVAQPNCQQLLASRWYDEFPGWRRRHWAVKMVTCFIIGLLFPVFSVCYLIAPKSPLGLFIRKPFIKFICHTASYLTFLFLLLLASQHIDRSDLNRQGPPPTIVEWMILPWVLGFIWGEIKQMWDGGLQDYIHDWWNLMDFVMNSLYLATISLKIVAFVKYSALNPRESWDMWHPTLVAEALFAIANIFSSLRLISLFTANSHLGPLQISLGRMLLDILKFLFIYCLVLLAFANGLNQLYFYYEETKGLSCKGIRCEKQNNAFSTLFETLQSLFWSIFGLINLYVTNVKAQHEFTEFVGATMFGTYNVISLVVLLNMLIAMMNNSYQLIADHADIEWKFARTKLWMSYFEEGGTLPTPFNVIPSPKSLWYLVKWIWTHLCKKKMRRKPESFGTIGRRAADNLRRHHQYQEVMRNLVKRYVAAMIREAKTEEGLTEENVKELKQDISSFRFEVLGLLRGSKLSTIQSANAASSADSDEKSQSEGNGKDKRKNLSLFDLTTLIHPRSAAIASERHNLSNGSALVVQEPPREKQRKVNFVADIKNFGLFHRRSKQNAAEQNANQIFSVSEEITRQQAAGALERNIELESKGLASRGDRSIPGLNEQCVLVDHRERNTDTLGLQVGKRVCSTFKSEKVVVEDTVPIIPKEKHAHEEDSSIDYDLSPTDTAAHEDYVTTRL

[7] = biological target: T2, Calpain-2 catalytic subunit (Sus scrofa, UniProt P43367); experiment: pig calpain II inhibitor potency, dose response, biochemical, fluorogenic peptide substrate (AID 1420); format: functional
T2 sequence (P43367 whole entry): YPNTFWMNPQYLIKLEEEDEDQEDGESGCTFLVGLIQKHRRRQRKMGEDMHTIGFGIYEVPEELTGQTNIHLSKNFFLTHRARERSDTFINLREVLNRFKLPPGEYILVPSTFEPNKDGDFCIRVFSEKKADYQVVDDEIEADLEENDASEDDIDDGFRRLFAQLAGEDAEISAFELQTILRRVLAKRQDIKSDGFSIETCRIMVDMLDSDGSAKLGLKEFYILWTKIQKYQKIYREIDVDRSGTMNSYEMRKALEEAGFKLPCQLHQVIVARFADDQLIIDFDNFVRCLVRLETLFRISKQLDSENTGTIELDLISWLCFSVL

[8] = biological target: T3, Mannose-6-phosphate isomerase (Homo sapiens, UniProt P34949); experiment: human PMI inhibitors, high substrate, primary screen, biochemical, fluorescence intensity, high mannose 6-phosphate (AID 1220)
T3 sequence (P34949 whole entry): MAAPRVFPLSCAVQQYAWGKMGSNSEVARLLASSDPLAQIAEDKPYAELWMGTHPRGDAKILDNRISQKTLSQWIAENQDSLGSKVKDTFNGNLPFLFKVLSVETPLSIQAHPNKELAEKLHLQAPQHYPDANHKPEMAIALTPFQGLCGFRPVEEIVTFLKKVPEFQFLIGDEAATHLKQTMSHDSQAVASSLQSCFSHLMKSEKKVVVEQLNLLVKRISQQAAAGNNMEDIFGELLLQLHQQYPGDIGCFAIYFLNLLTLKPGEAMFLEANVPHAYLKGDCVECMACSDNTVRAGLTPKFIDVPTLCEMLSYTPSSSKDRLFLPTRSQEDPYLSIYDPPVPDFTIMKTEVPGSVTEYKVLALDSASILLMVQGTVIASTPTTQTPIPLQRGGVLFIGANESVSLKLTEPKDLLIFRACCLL

[9] = ZM109 Env clade C HIV-1 fusion inhibitors, dose response, HeLa effector, CEM target cells, luciferase, cherry-pick (AID 652058); format: functional, cell-based
[10] = non-specific cell cytotoxicity, dose response, cytotoxicity control for PAX8 inhibitor project, plate reader, dry powder samples (AID 743021); format: functional, cell-based
Paired box protein Pax-8 = Paired box protein Pax-8 (Homo sapiens, UniProt Q06710); experiment: inhibitors of PAX8-driven TPO luciferase reporter, dose response, RMG-I cells, cherry-pick (AID 687027); format: functional, cell-based;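 note: luciferase reporter driven by Pax8 target thyroperoxidase promoter measured by SteadyGlo luminescence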
Sequence of Paired box protein Pax-8 (Q06710 whole entry): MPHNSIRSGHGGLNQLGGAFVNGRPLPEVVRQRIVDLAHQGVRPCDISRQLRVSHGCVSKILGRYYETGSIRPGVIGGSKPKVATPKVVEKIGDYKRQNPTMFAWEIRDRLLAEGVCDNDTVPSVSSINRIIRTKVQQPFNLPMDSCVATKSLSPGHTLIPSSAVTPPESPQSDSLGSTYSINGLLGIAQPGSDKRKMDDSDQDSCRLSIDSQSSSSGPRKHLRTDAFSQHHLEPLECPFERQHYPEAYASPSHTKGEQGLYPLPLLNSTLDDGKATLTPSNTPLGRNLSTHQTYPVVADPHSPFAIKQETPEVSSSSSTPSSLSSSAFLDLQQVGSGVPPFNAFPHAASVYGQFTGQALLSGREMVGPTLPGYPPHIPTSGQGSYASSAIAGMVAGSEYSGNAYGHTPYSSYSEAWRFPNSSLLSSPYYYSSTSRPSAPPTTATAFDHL

[11] = P. falciparum Dd2 growth inhibitors, dose response, SYBR Green, cherry-picked samples (AID 1159567); format: functional, cell-based
[12] = HepG2 cell cytotoxicity, dose response, cytotoxicity control, cherry-picked samples (AID 1159577); format: functional, cell-based
[13] = cytotoxicity in HPDE-C7 cells, cell-based, fluorescence, HTS (AID 430); format: functional; conditions: Homo sapiens
Cytochrome P450 2C9 = Cytochrome P450 2C9 (Homo sapiens, UniProt P11712); conditions: Potency
Sequence of Cytochrome P450 2C9 (P11712 whole entry): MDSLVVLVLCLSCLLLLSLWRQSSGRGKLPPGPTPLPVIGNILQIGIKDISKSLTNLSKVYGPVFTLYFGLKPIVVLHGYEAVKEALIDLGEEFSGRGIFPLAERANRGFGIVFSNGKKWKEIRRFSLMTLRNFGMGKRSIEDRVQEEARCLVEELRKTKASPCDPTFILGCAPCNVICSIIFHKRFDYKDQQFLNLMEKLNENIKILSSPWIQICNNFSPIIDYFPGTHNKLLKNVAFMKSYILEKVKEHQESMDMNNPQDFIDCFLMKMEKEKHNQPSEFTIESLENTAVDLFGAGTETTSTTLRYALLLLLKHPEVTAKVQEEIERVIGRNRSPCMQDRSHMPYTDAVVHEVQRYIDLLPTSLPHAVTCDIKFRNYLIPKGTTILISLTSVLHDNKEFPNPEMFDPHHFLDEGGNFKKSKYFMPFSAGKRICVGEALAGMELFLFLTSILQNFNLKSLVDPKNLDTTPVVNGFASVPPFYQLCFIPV

Cytochrome P450 3A4 = Cytochrome P450 3A4 (Homo sapiens, UniProt P08684); conditions: Potency;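 note: confirmatory qHTS run detecting inhibitors and substrates of CYP3A4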
Sequence of Cytochrome P450 3A4 (P08684 whole entry): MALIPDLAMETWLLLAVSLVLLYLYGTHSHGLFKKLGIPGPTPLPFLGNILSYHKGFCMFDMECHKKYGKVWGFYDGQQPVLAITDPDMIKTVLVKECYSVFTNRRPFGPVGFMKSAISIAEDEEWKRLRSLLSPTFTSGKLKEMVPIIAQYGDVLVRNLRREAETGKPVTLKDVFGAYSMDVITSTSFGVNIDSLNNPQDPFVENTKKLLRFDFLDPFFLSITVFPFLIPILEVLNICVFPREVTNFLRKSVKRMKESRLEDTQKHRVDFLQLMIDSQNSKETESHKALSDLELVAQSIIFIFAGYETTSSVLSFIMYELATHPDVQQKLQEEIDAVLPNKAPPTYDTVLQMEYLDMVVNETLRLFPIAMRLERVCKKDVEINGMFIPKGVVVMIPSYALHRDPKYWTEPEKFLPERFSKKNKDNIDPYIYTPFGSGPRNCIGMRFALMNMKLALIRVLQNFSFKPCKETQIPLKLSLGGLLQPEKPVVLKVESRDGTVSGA

[14] = Luminescence Cell-Based Dose Retest to Confirm Inhibitors of Cancer Stem Cells. [Related pubchem assays (depositor defined):AID2717, AID2721]; format: functional; conditions: Homo sapiens
[15] = biological target: T4, Ubiquitin-conjugating enzyme E2 N (Homo sapiens, UniProt P61088); format: functional;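 note: Dose-response confirmation in a TR-FRET assay detecting UBC13-driven polyubiquitin chain formation, inhibition measured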
T4 sequence (P61088 whole entry): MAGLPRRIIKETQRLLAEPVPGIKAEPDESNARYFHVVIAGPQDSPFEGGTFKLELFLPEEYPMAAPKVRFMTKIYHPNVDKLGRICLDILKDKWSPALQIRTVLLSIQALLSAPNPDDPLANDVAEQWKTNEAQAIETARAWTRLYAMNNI

[16] = cytotoxicity in KRAS-transformed pancreatic duct cells, primary screen, cell-based, fluorescence, HTS (AID 431); format: functional; conditions: Homo sapiens;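 note: cell line used: HPDE-C7K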

Question: What does the source list for `Nc1cc(-c2ccccc2)nn1S(=O)(=O)c1ccc(F)cc1`?
Answer: AC50 [1]: 59.6 µM (active); AC50 [2]: 3.4 µM (active); AC50 [3]: 3.99 µM (active)

Question: Which EC50 (cells [4]) does the source give for `CC1CN(c2nc3ccccn3c(=O)c2/C=C(\C#N)C(=O)N2CCOCC2)CC(C)O1` (centres undefined) here?
Answer: > 350 µM (not active)

Question: And the EC50 (cells [5])?
Answer: > 350 µM (not active)

Question: Which IC50 (Large T antigen) does the source give for `N#Cc1ccsc1NC(=O)CN1CCN(c2ccc(O)cc2)CC1` here?
Answer: 6.44 µM (active)

Question: Which results are given for `Cc1cc(C)nc(N=C(N)N(Cc2ccccc2)Cc2ccccc2)n1`?
Answer: EC50 [6]: 1.5 µM (active); IC50 [7]: > 50 µM (not active)

Question: With `COc1ccc(-c2ccc(C(=O)O)o2)c([N+](=O)[O-])c1` as the molecule, how does the IC50 [8] read?
Answer: > 50 µM (not active)

Question: Which AC50 [1] does the source give for `COC(=O)C1(C(=O)OC)C[C@H](c2ccccc2)N(Cc2ccccc2OC)[C@@H]1c1ccccc1` here?
Answer: 1.65 µM (active)

Question: What about the AC50 [2] of the same molecule?
Answer: 3.26 µM (active)

Question: And the AC50 [3]?
Answer: 2.41 µM (active)

Question: And the AC50 [9]?
Answer: 1.75 µM (active)

Question: Which AC50 [1] does the source give for `CCC(=O)N(C)C[C@@H]1Oc2cc(C#Cc3ccccc3)ccc2S(=O)(=O)N([C@H](C)CO)C[C@H]1C` here?
Answer: 7.15 µM (active)

Question: What about the AC50 [3] of the same molecule?
Answer: 54.8 µM (active)

Question: And the AC50 [9]?
Answer: 1.58 µM (active)

Question: For `O=C(Cc1ccccn1)N1CCCCN2[C@@H](CO)[C@@H](c3ccc(-c4ccccc4F)cc3)[C@@H]2C1`, which AC50 [10] is on record?
Answer: 46.2 µM (active)

Question: And the AC50 (Paired box protein Pax-8)?
Answer: 57 µM (active)

Question: With `C/C(N)=C(/C#N)C(=O)COC(=O)CC12CC3CC(CC(C3)C1)C2` as the molecule, how does the EC50 [6] read?
Answer: 1.5 µM (active)

Question: And the IC50 [7]?
Answer: 12 µM (not active)

Question: Which AC50 [11] does the source give for `OC[C@@H]1[C@H](c2ccc(C3=CCCCC3)cc2)[C@@H](CNC2CCCC2)N1CC1CC1` here?
Answer: 1.61 µM (active)

Question: And the AC50 [12]?
Answer: 21.9 µM (active)

Question: Which AC50 [11] does the source give for `COc1cccc(S(=O)(=O)Nc2ccc3c(c2)[C@@H]2C[C@H](CC(=O)NCc4ccccc4F)O[C@@H](CO)[C@@H]2O3)c1` here?
Answer: 5.32 µM (active)

Question: And the AC50 [12]?
Answer: > 39 µM (inactive)

Question: Which AC50 [11] does the source give for `CCCN(C)C[C@H]1Oc2ncc(C#Cc3ccc(OC)cc3)cc2C(=O)N([C@@H](C)CO)C[C@H]1C` here?
Answer: 2.78 µM (active)

Question: What about the AC50 [12] of the same molecule?
Answer: 28.8 µM (active)

Question: For `COc1ccc2c3c(n(C)c2c1)[C@@H](CO)N(Cc1ccc(F)cc1)CC31CCN(CC2CC2)CC1`, which AC50 [11] is on record?
Answer: 3.48 µM (active)

Question: And the AC50 [12]?
Answer: > 39 µM (inactive)

Question: For `Cc1nc2sccn2c(=O)c1CCN1CCC(=C(c2ccc(F)cc2)c2ccc(F)cc2)CC1` [RITANSERIN], which EC50 [13] is on record?
Answer: > 20 µM (not active)

Question: And the AC50 (Cytochrome P450 2C9)?
Answer: 25.1 µM (inconclusive)

Question: What about the AC50 (Cytochrome P450 3A4) of the same molecule?
Answer: 20 µM (inconclusive)

Question: And the AC50 [14]?
Answer: 6.23 µM (active)

Question: What about the IC50 [15] of the same molecule?
Answer: > 20 µM (inactive)

Question: What about the EC50 [16] of the same molecule?
Answer: > 20 µM (not active)
